Test results from publication PMC7450057, “Enhancing intracellular accumulation and target engagement of PROTACs with reversible covalent chemistry” (Nature Communications, 2020).
Where “and” joins values, the source holds several entries; their conditions need not be identical. Equal entries are not always repeated.

System: MOLM-14 cells
Assay: AlamarBlue cell viability assay, MOLM-14
Details: Supplementary Figure 7, replicates
Procedure: The IC50 was calculated using GraphPad Prism software with a four-parameter dose-response curve fit.

CN(CCCC(=O)N1CCC[C@@H](n2nc(-c3ccc(Oc4ccccc4)cc3)c3c(N)ncnc32)C1)CCOCCNC(=O)CNc1cccc2c1C(=O)N(C1CCC(=O)NC1=O)C2=O (stereo partly shown) [RNC-3]
Cell viability, MOML-14 (drug concentration 1.00E-05 M): 41.7673 and 39.1993 and 57.4163 and 48.1542 and 48.9004 | Cell viability, MOML-14 (drug concentration 1.60E-08 M): 96.7473 and 87.6169 and 107.151 and 102.3 and 127.409 | Cell viability, MOML-14 (drug concentration 2.00E-06 M): 75.1942 and 80.0887 and 89.5483 and 81.8665 and 89.4166 | Cell viability, MOML-14 (drug concentration 3.20E-09 M): 75.7649 and 76.4014 and 100.083 and 102.234 and 81.9543 | Cell viability, MOML-14 (drug concentration 4.00E-07 M): 62.3107 and 94.9036 and 99.6225 and 103.727 and 94.5305 | Cell viability, MOML-14 (drug concentration 6.40E-10 M): 107.063 and 96.7253 and 127.343 and 114.679 and 82.7444 | Cell viability, MOML-14 (drug concentration 8.00E-08 M): 77.6963 and 91.9187 and 116.522 and 86.0147 and 77.6085

CN(C/C=C/C(=O)N1CCC[C@@H](n2nc(-c3ccc(Oc4ccccc4)cc3)c3c(N)ncnc32)C1)CCOCCNC(=O)CNc1ccc2c(c1)C(=O)N(C1CCC(=O)NC1=O)C2=O (stereo partly shown) [IRC-10]
Cell viability, MOML-14 (drug concentration 1.00E-05 M): 75.82 and 58.3378 and 68.0769 and 46.8499 and 54.5004 | Cell viability, MOML-14 (drug concentration 1.60E-08 M): 97.1244 and 98.6788 and 78.5933 and 90.154 and 64.4582 | Cell viability, MOML-14 (drug concentration 2.00E-06 M): 114.76 and 85.758 and 93.5542 and 68.0284 and 77.3303 | Cell viability, MOML-14 (drug concentration 3.20E-09 M): 99.6503 and 95.7157 and 83.0135 and 73.4201 and 68.8541 | Cell viability, MOML-14 (drug concentration 4.00E-07 M): 101.229 and 92.1212 and 88.8668 and 84.1065 and 86.0252 | Cell viability, MOML-14 (drug concentration 6.40E-10 M): 105.091 and 113.591 and 102.055 and 78.059 and 83.1593 | Cell viability, MOML-14 (drug concentration 8.00E-08 M): 111.6 and 85.6366 and 80.0019 and 73.9301 and 92.4127

CN(CCCC(=O)N1CCC[C@@H](n2nc(-c3ccc(Oc4ccccc4)cc3)c3c(N)ncnc32)C1)CCOCCNC(=O)CNc1ccc2c(c1)C(=O)N(C1CCC(=O)NC1=O)C2=O (stereo partly shown) [RNC-10]
Cell viability, MOML-14 (drug concentration 1.00E-05 M): 20.4373 and 14.3566 and 19.5812 and 10.2077 and 15.081 | Cell viability, MOML-14 (drug concentration 1.60E-08 M): 105.787 and 111.889 and 72.4196 and 87.9176 and 69.5658 | Cell viability, MOML-14 (drug concentration 2.00E-06 M): 69.7853 and 58.8313 and 63.507 and 54.1116 and 44.6942 | Cell viability, MOML-14 (drug concentration 3.20E-09 M): 101.374 and 90.2665 and 79.5759 and 58.2825 and 70.4 | Cell viability, MOML-14 (drug concentration 4.00E-07 M): 94.3057 and 78.2807 and 83.198 and 62.2338 and 64.8242 | Cell viability, MOML-14 (drug concentration 6.40E-10 M): 98.3448 and 99.8376 and 85.8542 and 80.1905 and 70.3561 | Cell viability, MOML-14 (drug concentration 8.00E-08 M): 101.967 and 84.7346 and 87.9396 and 100.716 and 97.1814

CN(C/C=C/C(=O)N1CCC[C@@H](n2nc(-c3ccc(Oc4ccccc4)cc3)c3c(N)ncnc32)C1)CCOCCNC(=O)CNc1cccc2c1C(=O)N(C1CCC(=O)NC1=O)C2=O (stereo partly shown) [IRC-3]
Cell viability, MOML-14 (drug concentration 1.00E-05 M): 33.9254 and 29.7755 and 25.5011 and 24.5466 and 23.5092 | Cell viability, MOML-14 (drug concentration 1.60E-08 M): 86.2431 and 93.4971 and 75.2168 and 81.4209 and 78.2878 | Cell viability, MOML-14 (drug concentration 2.00E-06 M): 87.4798 and 73.7851 and 74.2831 and 71.2537 and 90.0734 | Cell viability, MOML-14 (drug concentration 3.20E-09 M): 87.9238 and 88.7455 and 83.4544 and 84.1599 and 82.3547 | Cell viability, MOML-14 (drug concentration 4.00E-07 M): 86.2555 and 86.2763 and 83.0809 and 75.6111 and 85.2388 | Cell viability, MOML-14 (drug concentration 6.40E-10 M): 91.0487 and 98.1035 and 82.7281 and 78.682 and 82.9771 | Cell viability, MOML-14 (drug concentration 8.00E-08 M): 83.1182 and 78.35 (2×) and 67.9338 and 81.6492
